Assay [1] concerns HIV (HTLV-III). Kind of assay: HIV-cytopathic Effect Inhibition Assay. The conditions noted are these: survival of drug treated target cells with HIV (HTLV-III), seven days; FIGS. 1 to 3. It counts as cell-based. As to the method: Compounds I and II were tested in the HIV-cytopathic Effect Inhibition Assay as described in the publication by Mitsuya, et al. Proc. Nat'l Acad. Sci., USA, 83:1911 (1986), which publication is hereby incorporated by reference.
The cells were exposed to either Compound I, Compound II, or AZT, and the survival of drug treated target cells determined seven days thereafter.
The black bars represent survival of compound treated target cells when HIV (HTLV-III) is added. The light bars represent survival of compound treated target cells in the absence of virus.
(Cytopathic effects are the visible damage that an infection or toxin causes in cultured cells.)

Assay [2] relates to HIV, HTLV III; RF strain. As to the kind of experiment: HIV antigen capture ELISA, virus growth in CD4+ T-lymphocytes. It is filed as cell-based. The conditions noted are these: C8166 CD4+ T-cell line; for IC50: Human immunodeficiency virus 1, T-lymphocyte, supernatant antigen at 72 hours post-infection. How it is done:
The Enzyme Linked Immuno-absorbent Assay (ELISA) was used to test compounds I and II for anti-HIV activity by measuring virus growth in CD4^+ T-lymphocytes by detecting antigen released into the tissue culture supernatant of infected cells.
High titre virus stocks [HIV, HTLV III; RF strain] were grown in H9 cells in RPMI 1640 (Flow Laboratories) supplemented with 10% fetal calf serum, penicillin (100 IU/ml) and streptomycin (100 ug/ml). Cell debris was removed by low speed centrifugation and the supernatant stored at -70° C. until required. The host cell line used in the antiviral assays was the C8166 CD4^+ T-cell line which is particularly susceptible to infection with HIV. Cells were incubated with 10 TCID50, HIV/HTLV III(RF) at 37° C. for 90 minutes and then washed three times with PBSA. Cell aliquots (2×10^5) were resuspended in 1.5 ml growth medium in 6 ml tubes and incubated at 37° C. At 72 hours post-infection, the supernatants from the cell cultures were assayed immediately for HIV antigen.
The antigen capture ELISA used was purchased from Coulter (Luton, UK). The assays were carried out on supernatants taken from infected cell cultures using the steps described by the manufacturers. In each assay the corresponding positive and negative internal controls were included together with a supernatant control taken from uninfected cells. The plates were read using the appropriate spectrophotometric detection system.
On the technique in general: ELISA stands for enzyme-linked immunosorbent assay.

For the compound `Nc1ncnc2c1ncn2[C@H]1CO[C@@H](CO)C1` [Compound I, (2R-cis)-4-(6-Amino-9H-purin-9-yl)tetrahydro-2-furanmethanol], the “anti-HIV activity relative to known antiretroviral therapeutics (AZT)” value in assay [1] is listed as “equivalent to that of antiretroviral therapeutics known to have in vivo activity against HIV, most particularly AZT”. Besides, in assay [2] (antigen ELISA), the “antiviral activity in this test system, compared to ddA” value is “comparable to that of a known anti-HIV agent ddA”. In addition, the IC50 in assay [2] fell in the range of 3000 to 10000 nM. `Nc1nc2c(ncn2[C@H]2CO[C@@H](CO)C2)c(=O)[nH]1` [Compound II]: the “anti-HIV activity relative to known antiretroviral therapeutics (AZT)” value in assay [1] is given as “equivalent to that of antiretroviral therapeutics known to have in vivo activity against HIV, most particularly AZT”. In assay [2], `Nc1ncnc2c1ncn2[C@H]1CC[C@@H](CO)O1` [ddA, 2',3'-dideoxyadenosine, reference compound] gave an IC50 of 1000 to 3000 nM.

Broadly, the IC50 is the concentration that inhibits the measured activity by half. A lower IC50 goes with greater potency in that assay.

Source of the values: patent US5126347A, “Isomeric dideoxynuclesides” (Hoffmann-La Roche Inc., priority 1989, dated 1992).
